Source: US8426429B2, “2-amino-quinazoline derivatives useful as inhibitors of β-secretase (BACE)” (Jansssen Pharmaceutica N.V., priority 2004, dated 2013)
Values joined by “and” are separate entries in the source; they are usually repeats but may differ in a detail not shown here. Identical values can stand only once.

Target: T1, β-secretase (BACE) (Homo sapiens, UniProt P56817)
T1 construct: purchased Panvera
Assay: BACE FS1 % Inhibition Assay
Format: biochemical
Method: The following reagents were used in this assay: sodium acetate, PEG8000 (Sigma), DMSO, HEPES, FS1 substrate [[…]] […] The FS1-substrate stock solution was prepared in DMSO as a 10 mg/mL solution. The FS1-substrate working solution was prepared by diluting the 10 mg/mL stock solution with substrate assay buffer to a final concentration of 300 μg/mL. The β-secretase (BACE) working solution was prepared by diluting a 0.83 mg/mL BACE stock solution with enzyme assay buffer to a final concentration of 4 μg/mL. Test compounds were dissolved in DMSO to 10 mM. […] The screening procedure for this assay was as follows: 15 μL of BACE working solution was pipetted into each well of a 96-well plate. To each well was then pipetted 2 μL of test compound at the selected concentration. Test compound and BACE were then mixed with a pipettor and incubated for 20 min at room temperature. To each well was then added 10 μL of the FS1 substrate working solution. The plates were then incubated for 1 hour at room temperature. […] The procedure for the blank was as follows. 15 μL of assay buffer was pipetted into each well to be used as a blank control. To each well was then added 2 μL of vehicle and 10 μL of FS1-substrate working solution. The plates were then incubated for 1 hour at room temperature. […] The procedure for the positive control was as follows: 15 μL of BACE working solution was pipetted into each well to be used as a positive control. To each well was then pipetted 2 μL of vehicle. Vehicle and BACE were then mixed with a pipettor and incubated for 20 min at room temperature. To each well was then added 10 μL of the FS1 substrate working solution. The plates were then incubated for 1 hour at room temperature. […] For test compounds, % inhibition was determined at each concentration as follows: [formula]

T1 sequence (P56817 46-501): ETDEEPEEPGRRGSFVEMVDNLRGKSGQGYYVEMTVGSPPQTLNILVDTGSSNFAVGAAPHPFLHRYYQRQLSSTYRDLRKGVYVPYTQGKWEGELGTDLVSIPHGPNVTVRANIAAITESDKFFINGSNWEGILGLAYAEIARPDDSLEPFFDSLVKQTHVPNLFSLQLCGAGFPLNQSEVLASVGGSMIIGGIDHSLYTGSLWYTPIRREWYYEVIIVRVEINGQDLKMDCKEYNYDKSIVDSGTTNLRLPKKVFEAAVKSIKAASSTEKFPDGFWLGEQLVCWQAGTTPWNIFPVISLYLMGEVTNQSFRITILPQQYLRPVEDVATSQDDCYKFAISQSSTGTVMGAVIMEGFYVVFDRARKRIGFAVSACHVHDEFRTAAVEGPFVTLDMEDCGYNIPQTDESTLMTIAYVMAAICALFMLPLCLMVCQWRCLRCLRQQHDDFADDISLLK

Structure (SMILES) | % Inhibition (FS) (0.3 μM test compound) | % Inhibition (FS) (1 μM test compound) | % Inhibition (FS) (3 μM test compound) | further results
COc1ccc(Nc2ccc3c(c2)CN(Cc2cccc(C(=O)N(C)C4CCCCC4)c2)C(N)=N3)cc1 [Compound 434] | <30% | <30% | <30% | –
NC1=Nc2ccc(-c3ccccc3Cl)cc2CN1CCNC(=O)C12CC3CC(CC(C3)C1)C2 [Compound 651] | <30% | 51% | 96% | –
CCCCCC(CCC(=O)NC1CCCCCC1)N1Cc2cc(Oc3ccccc3)ccc2N=C1N (stereo not drawn) [Compound 150] | <30% | <30% | 90% | –
CCCC(CCCC(=O)N(C)C1CCN(C)CC1)N1Cc2cc(Oc3ccccc3)ccc2N=C1N (stereo not drawn) [Compound 106] | – | – | 103% | % Inhibition (FS) (10 μM test compound): 114%
CCCCCCCCC(CCC(=O)NC1CCCCCC1)N1Cc2cc(Oc3ccccc3)ccc2N=C1N (stereo not drawn) [Compound 208] | <30% | <30% | 67% | –
CCCCCC1CCC(C(=O)NCCN2Cc3cc(Oc4ccccc4)ccc3N=C2N)CC1 (stereo not drawn) [Compound 182] | <30% | <30% | 38% | –
CCCC(CNC(=O)C1CCCCC1)N1Cc2cc(Oc3ccccc3)ccc2N=C1N (stereo not drawn) [Compound 601] | – | – | – | % Inhibition (FS) (0.3 μM test compound, 0.3 µM): 105%; % Inhibition (FS) (1 μM test compound, 1 µM): 115%; % Inhibition (FS) (3 μM test compound, 3 µM): 121%
COc1ccccc1-c1ccc2c(c1)CN(CCNC(=O)C1(C(N)=O)CC1)C(N)=N2 [Compound 488] | <30% | <30% | <30% | –
COc1ccccc1-c1ccc2c(c1)CN(CCNC(=O)C1CCN(C(C)=O)CC1)C(N)=N2 [Compound 491] | <30% | <30% | – | % Inhibition (FS) (3 μM test compound, 3 µM): 44% and <30%
NC1=Nc2ccc(-c3ccccc3-c3ccccc3)cc2CN1CCNC(=O)C1CCCCC1 [Compound 544] | 32% | <30% | 51% | –
NC1=Nc2ccc(-c3ccccc3F)cc2CN1CCNC(=O)C1CCOCC1 [Compound 687] | – | – | – | % Inhibition (FS) (0.3 μM compound, FS1 substrate): <30%; % Inhibition (FS) (1 μM compound, FS1 substrate): 50%; % Inhibition (FS) (3 μM compound, FS1 substrate): 87%
CCc1ccccc1-c1ccc2c(c1)CN(Cc1cccc(C(=O)N(C)C3CCCCC3)c1)C(N)=N2 [Compound 320] | −31% | <30% | <30% | –
CNC(=O)C1CCC(N(C)C(=O)CCC(C2CCCCC2)N2Cc3cc(Oc4ccccc4)ccc3N=C2N)CC1 (stereo not drawn) [Compound 765] | – | – | – | % Inhibition (FS) (0.3 μM compound, FS1 substrate): <30%; % Inhibition (FS) (1 μM compound, FS1 substrate): 56%; % Inhibition (FS) (3 μM compound, FS1 substrate): 97%
COc1cccc(COc2ccc3c(c2)CN(Cc2cccc(C(=O)N(C)C4CCCCC4)c2)C(N)=N3)c1 [Compound 514] | <30% | <30% | <30% | –
CC(C)Oc1ccc2c(c1)CN(Cc1cccc(C(=O)N(C)C3CCCCC3)c1)C(N)=N2 [Compound 519] | <30% | <30% | <30% | –
NC1=Nc2ccc(-c3ccccc3F)cc2CN1CCNC(=O)C1CCCC1 [Compound 643] | 74% | 92% | 110% | –
CC(=O)c1cccc(-c2ccc3c(c2)CN(CCNC(=O)CC2CCCC2)C(N)=N3)c1 [Compound 582] | <30% | <30% | <30% | –
NC1=Nc2ccc(Oc3ccccc3)cc2CN1C1CCN(C(=O)C23CC4CC(CC(C4)C2)C3)CC1 [Compound 524] | <30% | <30% | 44% | –
COc1cccc(OC)c1Oc1ccc2c(c1)CN(Cc1cccc(C(=O)N(C)C3CCCCC3)c1)C(N)=N2 [Compound 477] | <30% | <30% | <30% | –
CN(CCN1Cc2cc(Oc3ccccc3)ccc2N=C1N)C1CCCCC1 [Compound 429] | <30% | <30% | <30% | –
NC1=Nc2ccc(Oc3ccccc3)cc2CN1C1CCN(C(=O)C2CCCCC2)C1 (stereo not drawn) [Compound 119] | – | – | 42% | % Inhibition (FS) (10 μM test compound): 75%
CN(C(=O)c1cccc(CN2Cc3cc(-c4cccc(C(=O)O)c4)ccc3N=C2N)c1)C1CCCCC1 [Compound 163] | <30% | 33% | <30% | –

Structure (SMILES) | % Inhibition (FS) (0.3 μM test compound) | % Inhibition (FS) (1 μM test compound) | % Inhibition (FS) (3 μM test compound) | further results
N#Cc1cccc(C(=O)NCCN2Cc3cc(-c4cncnc4)ccc3N=C2N)c1 [Compound 567] | <30% | <30% | <30% | –
CSc1ccccc1Oc1ccc2c(c1)CN(Cc1cccc(C(=O)N(C)C3CCCCC3)c1)C(N)=N2 [Compound 474] | <30% | <30% | <30% | –
NC1=Nc2ccc(Oc3ccccc3)cc2CN1C(CC(=O)NC1CCCCC1)c1ccccc1 (stereo not drawn) [Compound 299] | <30% | <30% | <30% | –
CN(C(=O)c1cccc(CN2Cc3cc(Oc4ccccc4S(C)(=O)=O)ccc3N=C2N)c1)C1CCCCC1 [Compound 472] | <30% | <30% | <30% | –
CCCCC(CC)C(=O)NCCN1Cc2cc(-c3cnc4ccccc4c3)ccc2N=C1N (stereo not drawn) [Compound 676] | – | – | – | % Inhibition (FS) (0.3 μM compound, FS1 substrate): 33%; % Inhibition (FS) (1 μM compound, FS1 substrate): <30%; % Inhibition (FS) (3 μM compound, FS1 substrate): 44%
NC1=Nc2ccc(-c3ccc4ccccc4c3)cc2CN1CCNC(=O)C12CC3CC(CC(C3)C1)C2 [Compound 665] | – | – | – | % Inhibition (FS) (0.3 μM compound, FS1 substrate): 35%; % Inhibition (FS) (1 μM compound, FS1 substrate): <30%; % Inhibition (FS) (3 μM compound, FS1 substrate): <30%
CN(C(=O)c1cccc(CN2Cc3cc(C=Cc4ccccc4)ccc3N=C2N)c1)C1CCCCC1 [Compound 266] | <30% | 34% | <30% | –
CS(=O)(=O)Nc1ccccc1-c1ccc2c(c1)CN(CCNC(=O)C1CCCCC1)C(N)=N2 [Compound 539] | <30% | <30% | <30% | –
CN(C(=O)c1cccc(CN2Cc3cc(Oc4cccc(-c5ccc6ccccc6n5)c4)ccc3N=C2N)c1)C1CCCCC1 [Compound 473] | <30% | <30% | <30% | –
NC1=Nc2ccc(-c3ccccc3Cl)cc2CN1CCNC(=O)C1CCC(C(F)(F)F)CC1 (stereo not drawn) [Compound 690] | – | – | – | % Inhibition (FS) (0.3 μM compound, FS1 substrate): <30%; % Inhibition (FS) (1 μM compound, FS1 substrate): <30%; % Inhibition (FS) (3 μM compound, FS1 substrate): 52%
CC(C)C(=O)NCC(C1CCCCC1)N1Cc2cc(Oc3ccccc3)ccc2N=C1N (stereo not drawn) [Compound 301] | <30% | 82% | 106% | –
CN(C(=O)c1cccc(CN2Cc3cc(-c4ccccc4OCc4ccccc4)ccc3N=C2N)c1)C1CCCCC1 [Compound 327] | <30% | <30% | 48% | –
CCCCC(CC)C(=O)NCCN1Cc2cc(-c3ccc4ccccc4c3)ccc2N=C1N (stereo not drawn) [Compound 669] | – | – | – | % Inhibition (FS) (0.3 μM compound, FS1 substrate): <30%; % Inhibition (FS) (1 μM compound, FS1 substrate): <30%; % Inhibition (FS) (3 μM compound, FS1 substrate): 32%
C=CCc1cccc(OC)c1Oc1ccc2c(c1)CN(Cc1cccc(C(=O)N(C)C3CCCCC3)c1)C(N)=N2 [Compound 481] | <30% | <30% | 32% | –
CN(C(=O)c1ccc(CN2Cc3cc(Oc4ccccc4)ccc3N=C2N)s1)C1CCCCC1 [Compound 503] | <30% | <30% | 90% | –
CC(C)CCC(=O)NCCN1Cc2cc(-c3cnc4ccccc4c3)ccc2N=C1N [Compound 675] | – | – | – | % Inhibition (FS) (0.3 μM compound, FS1 substrate): 35%; % Inhibition (FS) (1 μM compound, FS1 substrate): <30%; % Inhibition (FS) (3 μM compound, FS1 substrate): <30%
CN(C(=O)c1cccc(CN2Cc3cc(-c4ccncc4)ccc3N=C2N)c1)C1CCCCC1 [Compound 168] | <30% | <30% | <30% | –
CCCC(CCCC(=O)NC1CCCCC1)N1Cc2cc(Oc3ccccc3)ccc2N=C1N (stereo not drawn) [Compound 91] | – | – | 68% | % Inhibition (FS) (10 μM test compound): 117%
NC1=Nc2ccc(-c3ccc(F)cc3)cc2CN1CCNC(=O)C1CCCCC1 [Compound 624] | <30% | – | – | % Inhibition (FS) (1 μM test compound, 1 µM): 38%; % Inhibition (FS) (3 μM test compound, 3 µM): 78%
CC(=O)Nc1cccc(-c2ccc3c(c2)CN(Cc2cccc(C(=O)N(C)C4CCCCC4)c2)C(N)=N3)c1 [Compound 166] | <30% | 37% | 74% | –
CN(C(=O)CC[C@@H](C1CCOCC1)N1Cc2cc(Oc3ccccc3)ccc2N=C1N)[C@H]1CC[C@@H](C(=O)O)CC1 [Compound 748] | – | – | – | % Inhibition (FS) (0.3 μM compound, FS1 substrate, 0.3 µM): 20%; % Inhibition (FS) (1 μM compound, FS1 substrate, 1 µM): 71%; % Inhibition (FS) (3 μM compound, FS1 substrate, 3 µM): 97%
